Reference: patent publication US9783532B2, “Molecules having certain pesticidal utilities, and intermediates, compositions, and processes related thereto” (Dow AgroSciences LLC, priority 2013, dated 2017)
Where two headings read alike, the source gives them in different places.

Tests used:
Type in all cases: in vivo
[1] = tested on: Beet Armyworm (Spodoptera exigua) ("BAW"); test: Bioassay on beet armyworm (BAW), 128-well diet tray assay; conditions: for mortality at 50 µg/cm2: 168 h, 50 μg/cm^2 on artificial diet, second instar BAW larvae, 25° C., five to seven days, average of eight wells, read-out: BAW % Control (or Mortality) rating; for pest or weed control at 50 µg/cm2: activity rating class, read-out: BAW (Biological Results, Insect species)
In short: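 Percent mortality, averaged across eight wells, was read after five to seven days at 25° C. under 14:10 light-dark. Each well held one to five second-instar larvae on artificial diet that had been treated with 50 μg/cm^2 compound in 90:10 acetone-water and dried.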

[2] = tested on: Yellow Fever Mosquito "YFM" (Aedes aegypti); conditions: for YFM % Control (or Mortality) rating: about 1 day-old larvae, 96-well plate, room temperature, 3 days; for YFM (Biological Results, Insect species): activity rating class
Experimental: Certain molecules disclosed in this document were tested against YFM using procedures described in the following paragraph. In the reporting of the results, the “YFM Rating Table” was used (See Table Section).
Master plates containing 400 μg of a molecule dissolved in 100 μL of dimethyl sulfoxide (DMSO) (equivalent to a 4000 ppm solution) are used. A master plate of assembled molecules contains 15 μL per well. To this plate, 135 μL of a 90:10 wateracetone mixture is added to each well. A robot (Biomek® NXP Laboratory Automation Workstation) is programmed to dispense 15 μL aspirations from the master plate into an empty 96-well shallow plate (“daughter” plate). There are 6 reps (“daughter” plates) created per master. The created daughter plates are then immediately infested with YFM larvae.
The day before plates are to be treated, mosquito eggs are placed in Millipore water containing liver powder to begin hatching (4 g. into 400 mL). After the daughter plates are created using the robot, they are infested with 220 μL of the liver powder/larval mosquito mixture (about 1 day-old larvae). After plates are infested with mosquito larvae, a non-evaporative lid is used to cover the plate to reduce drying. Plates are held at room temperature for 3 days prior to grading. After 3 days, each well is observed and scored based on mortality.

[3] = tested on: Cabbage Looper (Trichoplusia ni) ("CL"); test: Bioassay on cabbage looper (CL), 128-well diet tray assay; conditions: for pest or weed control at 50 µg/cm2: activity rating class, read-out: CL (Biological Results, Insect species)
In short: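 Percent mortality, averaged across eight replicate wells, was read after five to seven days at 25 °C under a 14:10 photoperiod. Each well held one to five second-instar T. ni on diet carrying a dried 50 μg/cm^2 dose applied in acetone-water 90:10.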

| Structure (SMILES) | pest or weed control at 50 µg/cm2 ([1]; Table ABC (FB)) [%] | YFM (Biological Results, Insect species) ([2]; Table ABC (FB)) | pest or weed control at 50 µg/cm2 ([3]; Table ABC (FB)) [%] | also measured |
| --- | --- | --- | --- | --- |
| Cc1ccc(C(C)C)c(N2C(=O)CS/C2=N\C(=O)NCCCc2ccc(-c3ncn(-c4ccc(OC(F)(F)F)cc4)n3)cc2)c1 [F20, (Z)-1-(3-(2-isopropyl-5-methylphenyl)-4-oxothiazolidin-2-ylidene)-3-(3-(4-(1-(4-(trifluoromethoxy)phenyl)-1H-1,2,4-triazol-3-yl)phenyl)propyl)urea] |  |  |  | mortality at 50 µg/cm2 [1]: 50 to 100%; YFM % Control (or Mortality) rating [2]: A (80-100); mortality at 50 µg/cm2 ([3]; 168 h, 50 μg/cm^2 on artificial diet, second instar CL larvae, 25° C., five to seven days, average of eight wells, read-out: CL % Control (or Mortality) rating): 50 to 100% |
| Cc1ccc(N2C(=O)CS/C2=N\C(=O)NCCCCc2ccc(-c3ncn(-c4ccc(OC(F)(F)F)cc4)n3)cc2)c(C)c1 [FB17, (Z)-1-(3-(2,4-dimethylphenyl)-4-oxothiazolidin-2-ylidene)-3-(4-(4-(1-(4-(trifluoromethoxy)phenyl)-1H-1,2,4-triazol-3-yl)phenyl)butyl)urea] | 50 to 100 | A (80-100) | 50 to 100 |  |
| CC(C)c1ccc(Cl)cc1N1C(=O)CS/C1=N\C(=O)NCCc1ccc(-c2ncn(-c3ccc(OC(F)(F)F)cc3)n2)cc1 [FB40, (Z)-1-(3-(5-chloro-2-isopropylphenyl)-4-oxothiazolidin-2-ylidene)-3-(4-(1-(4-(trifluoromethoxy)phenyl)-1H-1,2,4-triazol-3-yl)phenethyl)urea] | 50 to 100 | A (80-100) | 50 to 100 |  |
| Cc1ccc(C(C)C)c(N2C(=O)CCS/C2=N\C(=O)NCCc2ccc(-c3ncn(-c4ccc(OC(F)(F)F)cc4)n3)cc2)c1 [FB41] | 50 to 100 | A (80-100) | 50 to 100 |  |
| CC(Cc1ccc(-c2ncn(-c3ccc(OC(F)(F)F)cc3)n2)cc1)NC(=O)/N=C1\SCC(=O)N1c1cc(Cl)ccc1C(C)C (stereo not drawn) [FB42] | 50 to 100 | A (80-100) | 50 to 100 |  |
| Cc1ccc(N2C(=O)CS/C2=N\C(=O)NC(C)Cc2ccc(-c3ncn(-c4ccc(OC(F)(F)F)cc4)n3)cc2)c(C(C)C)c1 (stereo not drawn) [FB48, (Z)-1-(3-(2-isopropyl-4-methylphenyl)-4-oxothiazolidin-2-ylidene)-3-(1-(4-(1-(4-(trifluoromethoxy)phenyl)-1H-1,2,4-triazol-3-yl)phenyl)propan-2-yl)urea] | 50 to 100 | A (80-100) | 50 to 100 |  |
| CC(C)c1ccc(Cl)cc1N1C(=O)CS/C1=N\C(=O)NCC(C)c1ccc(-c2ncn(-c3ccc(OC(F)(F)F)cc3)n2)cc1 (stereo not drawn) [FB49, (Z)-1-(3-(5-chloro-2-isopropylphenyl)-4-oxothiazolidin-2-ylidene)-3-(2-(4-(1-(4-(trifluoromethoxy)phenyl)-1H-1,2,4-triazol-2,4-triazol-3-yl)phenyl)propyl)urea] | 50 to 100 | A (80-100) | 50 to 100 |  |
| Cc1ccc(C(C)C)c(N2C(=O)CS/C2=N\C(=O)N(C)CCc2ccc(-c3ncn(-c4ccc(OC(F)(F)F)cc4)n3)cc2)c1 [FB51] | 50 to 100 | A (80-100) | 50 to 100 |  |
| Cc1ccc(C(C)C)c(N2C(=O)CS/C2=N\C(=O)NCC(C)(C)c2ccc(-c3ncn(-c4ccc(OC(F)(F)F)cc4)n3)cc2)c1 [FB53, (Z)-1-(3-(2-isopropyl-5-methylphenyl)-4-oxothiazolidin-2-ylidene)-3-(2-methyl-2-(4-(1-(4-(trifluoromethoxy)phenyl)-1H-1,2,4-triazol-3-yl)phenyl)propyl)urea] | 50 to 100 | B (More than 0-Less than 80) | 50 to 100 |  |
| CCN(CCc1ccc(-c2ncn(-c3ccc(OC(F)(F)F)cc3)n2)cc1)C(=O)/N=C1\SCC(=O)N1c1cc(C)ccc1C(C)C [FB54, (Z)-1-ethyl-3-(3-(2-isopropyl-5-methylphenyl)-4-oxothiazolidin-2-ylidene)-1-(4-(1-(4-(trifluoromethoxy)phenyl)-1H-1,2,4-triazol-3-yl)phenethyl)urea] | 50 to 100 | A (80-100) | 50 to 100 |  |
| CCc1cc(C)ccc1N1/C(=N/C(=O)NCCc2ccc(-c3ncn(-c4ccc(OC(F)(F)F)cc4)n3)cc2)SCC1C (stereo not drawn) [FB56, (Z)-1-(3-(2-ethyl-4-methylphenyl)-4-methylthiazolidin-2-ylidene)-3-(4-(1-(4-(trifluoromethoxy)phenyl)-1H-1,2,4-triazol-3-yl)phenethyl)urea] | 50 to 100 | A (80-100) | 50 to 100 |  |
| CC(C)c1cc(F)ccc1N1/C(=N/C(=O)NCCc2ccc(-c3ncn(-c4ccc(OC(F)(F)F)cc4)n3)cc2)SCC1C (stereo not drawn) [FB57] | 50 to 100 | A (80-100) | 50 to 100 |  |
| COc1ccc(N2/C(=N/C(=O)NCCc3ccc(-c4ncn(-c5ccc(OC(F)(F)F)cc5)n4)cc3)SCC2C)c(C)c1 (stereo not drawn) [FB58, (Z)-1-(3-(4-methoxy-2-methylphenyl)-4-methylthiazolidin-2-ylidene)-3-(4-(1-(4-(trifluoromethoxy)phenyl)-1H-1,2,4-triazol-3-yl)phenethyl)urea] | 50 to 100 | A (80-100) | 50 to 100 |  |
| Cc1cccc(C)c1N1/C(=N/C(=O)NCCc2ccc(-c3ncn(-c4ccc(OC(F)(F)F)cc4)n3)cc2)SCC1C (stereo not drawn) [FB59, (Z)-1-(3-(2,6-dimethylphenyl)-4-methylthiazolidin-2-ylidene)-3-(4-(1-(4-(trifluoromethoxy)phenyl)-1H-1,2,4-triazol-3-yl)phenethyl)urea] | 50 to 100 | A (80-100) | 50 to 100 |  |
| CCC(CNC(=O)/N=C1\SCC(=O)N1c1ccccc1C(C)C)c1ccc(-c2ncn(-c3ccc(OC(F)(F)F)cc3)n2)cc1 (stereo not drawn) [P209, (Z)-1-(3-(2-isopropylphenyl)-4-oxothiazolidin-2-ylidene)-3-(2-(4-(1-(4-(trifluoromethoxy)phenyl)-1H-1,2,4-triazol-3-yl)phenyl)butyl)urea] |  |  |  | mortality at 50 µg/cm2 [1]: 50 to 100%; YFM % Control (or Mortality) rating [2]: A (80-100) |
| CCC(CNC(=O)/N=C1\SCC(=O)N1c1cc(OC)ccc1C(C)C)c1ccc(-c2ncn(-c3ccc(OC(F)(F)F)cc3)n2)cc1 (stereo not drawn) [P683, (Z)-1-(3-(2-isopropyl-5-methoxyphenyl)-4-oxothiazolidin-2-ylidene)-3-(2-(4-(1-(4-(trifluoromethoxy)phenyl)-1H-1,2,4-triazol-3-yl)phenyl)butyl)urea] |  |  |  | mortality at 50 µg/cm2 [1]: 50 to 100%; YFM % Control (or Mortality) rating [2]: A (80-100) |
| CCC(CNC(=O)/N=C1\SCC(=O)N1c1ccc(F)cc1C(C)C)c1ccc(-c2ncn(-c3ccc(OC(F)(F)F)cc3)n2)cc1 (stereo not drawn) [P1163] |  |  |  | mortality at 50 µg/cm2 [1]: 50 to 100%; YFM % Control (or Mortality) rating [2]: D (No activity noticed in this bioassay) |
| CCc1cccc(C)c1NC(=S)NC(=O)NCCCCc1ccc(-c2ncn(-c3ccc(OC(F)(F)F)cc3)n2)cc1 [PC153, 1-[(2-ethyl-6-methyl-phenyl)carbamothioyl]-3-[4-[4-[1-[4-(trifluoromethoxy)phenyl]-1H-1,2,4-triazol-3-yl]phenyl]butyl]urea] |  |  |  | YFM (Biological Results, Insect species) ([2]; Table ABC (PC)): B (More than 0-Less than 80); pest or weed control at 50 µg/cm2 ([3]; Table ABC (PC)): 50 to 100% |
| Cc1ccc(C(C)C)c(NC(=S)NC(=O)NCCCCc2cccc(-c3ncn(-c4ccc(OC(F)(F)F)cc4)n3)c2)c1 [PC176, 1-[(2-isopropyl-5-methyl-phenyl)carbamothioyl]-3-[4-[3-[1-[4-(trifluoromethoxy)phenyl]-1H-1,2,4-triazol-3-yl]phenyl]butyl]urea] |  |  |  | pest or weed control at 50 µg/cm2 ([1]; Table ABC (PC)): 0 to 50%; pest or weed control at 50 µg/cm2 ([3]; Table ABC (PC)): 50 to 100% |
| CCc1cccc(C)c1NC(=S)NC(=O)NCCCCc1cccc(-c2ncn(-c3ccc(OC(F)(F)F)cc3)n2)c1 [PC179, 1-[(2-ethyl-6-methyl-phenyl)carbamothioyl]-3-[4-[3-[1-[4-(trifluoromethoxy)phenyl]-1H-1,2,4-triazol-3-yl]phenyl]butyl]urea] |  |  |  | pest or weed control at 50 µg/cm2 ([1]; Table ABC (PC)): 0 to 50%; pest or weed control at 50 µg/cm2 ([3]; Table ABC (PC)): 50 to 100% |
